Results published in paper PMC4276551 (Journal of the renin-angiotensin-aldosterone system : JRAAS, 2014).
Where a SMILES comes first, the peptide text is derived from it. Where no end group is shown, it is not given here. The star is where a group is joined. Cbz = O=C(OCc1ccccc1)*

Legend:
[1] = tested on: Ang I to Ang-(1–7) converting peptidase activity in isolated nuclei from NRK-52E cells; test: Peptide metabolism: generation of Ang-; assay type: biochemical, rat; settings: 37°C, 125I-Ang I 0.5 nM; SCH39370 10 μM, ZPP 50 μM; HPLC with γ detector
[2] = pH 7.4
[3] = dose higher than the maximal recommended dose for heart failure and hypertension; without a further decline in blood pressure; cited from earlier work
[4] = target: T1, renin (NRK-52E cell nuclei) (Rattus norvegicus, UniProt P08424); test: Renin activity assay in nuclear lysate of NRK-52E cells; assay type: biochemical; settings: basal (control) nuclear lysate, aliskiren 1 μM, 37°C, 90 min; n = 3 passages
T1 sequence (P08424 65-402): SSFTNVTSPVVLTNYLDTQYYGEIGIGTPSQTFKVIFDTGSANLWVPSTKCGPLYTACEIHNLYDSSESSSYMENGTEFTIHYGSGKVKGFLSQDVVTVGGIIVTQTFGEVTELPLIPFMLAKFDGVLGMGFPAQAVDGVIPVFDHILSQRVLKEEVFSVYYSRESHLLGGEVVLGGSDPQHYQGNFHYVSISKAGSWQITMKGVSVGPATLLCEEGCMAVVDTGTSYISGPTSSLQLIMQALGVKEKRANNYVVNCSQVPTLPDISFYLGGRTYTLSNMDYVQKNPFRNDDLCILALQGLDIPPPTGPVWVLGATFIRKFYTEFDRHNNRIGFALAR

(pro)renin receptor = settings: cited from earlier work

Which “Effect on generation of Ang-(1–7) in the nuclear extract” value [1] does the source give for O=C(O)C(O)CNC(=O)[C@H](Cc1ccccc1)NC(CCc1ccccc1)C(=O)O (stereo partly drawn) [SCH39370] here?
The value was “did not block”.

For DRVYIHPFHL [Ang I], which “Half-life in nuclear cell extracts” value [2] is on record?
Its value is 1.22 h.

Which “Effect on generation of Ang-(1–7) in the nuclear extract” value [1] does the source give for O=C[C@@H]1CCCN1C(=O)[C@@H]1CCCN1C(=O)OCc1ccccc1 [ZPP, Z-prolyl prolinal] (Cbz-Pro-Pro-aldehyde) here?
Its value is “did not block”.

With CCOc1nc2cccc(C(=O)O)c2n1Cc1ccc(-c2ccccc2-c2nnn[nH]2)cc1 [candesartan] as the compound, how does the “Effect on persistent proteinuria” value [3] read?
The value was “significantly reduced”.

Which “Reduction of nuclear renin activity” value [4] does the source give for COCCCOc1cc(C[C@@H](C[C@H](N)[C@@H](O)C[C@H](C(=O)NCC(C)(C)C(N)=O)C(C)C)C(C)C)ccc1OC [aliskiren] here?
The value was 83%.

And the “Effect on binding of (pro)renin to the receptor” value ((pro)renin receptor)?
Its value is “do not block”.
